Reference: patent US20030023104A1, “Therapeutic compound - fatty acid conjugates” (COMMONWEALTH SCIENTIFIC AND INDUSTRIAL RESEARCH ORGANISATION, priority 1995, published 2003)
“And” between values parts separate entries of the source, which are not always exact repeats. Equal entries are not always repeated. Where two headings read alike, the source gives them in different places.

Legend:
UVB induced oedema = assay: UVB erythema assay (net skin fold thickness); format: in vivo, Skh-1 hairless albino female mice
[1] = tested on: reserpine-induced catatonia; assay: Anti-reserpine activity (reserpine-induced catatonia); conditions: for Response at 15 min.: individual mice 1 and 2
Experimental: The biological activities of L-DOPA and L-DOPA-GTP2 were tested in an animal model of Parkinsons' disease, a condition caused by low levels of the neurotransmitter dopamine in the brain. Mice were pretreated with reserpine which depletes dopamine and causes animals to become catatonic. The ability of L-DOPA and L-DOPA-GTP2 to reverse this condition was measured.
Mice were injected intraperitoneally (ip) with reserpine (5 mg/kg) and 4 hours later tested for catatonia. A mouse was judged to be catatonic if it was able to stay on a stopper of 4.5 cm diameter for 5 minutes. Catatonic animals were then injected ip with L-DOPA or L-DOPA-GTP2 suspended in Miglyol (200-400 μl/mouse) immediately before use and observed.

B16 melanoma cells = assay: Tumour Cytotoxicity Model (B16 melanoma in C57 mice); format: in vivo, C57 black mice; design: Mean (standard error) of B16 tumour volume adjusted for the variation in initial volume: scale not given here; conditions: for difference in tumour volume from the Vehicle group (95% level): 0.5 mg and 1.0 mg groups; for Mean (standard error) of B16 tumour volume adjusted for the variation in initial volume: statistically modified tumour volume; for B16 Tumour Volume: individual mice
Experimental: Groups of C57 black mice were given an initiation dose of 2×10^5 B16 melanoma cells as an intradermal injection. The cells were suspended in MEM without serum. The abdomen was clipped and 100 μl of cells + MEM was injected. […] The tumours were measured with a micrometer and photographed just prior to the injection of drug (day 8-10).
The cytotoxic drugs and their fatty acid conjugates were dissolved or suspended in 4:1 soy bean oil:ethyl oleate. A 10 mg/ml or a 20 mg/ml solution of each parent drug or the fatty acid conjugate made to the same molar concentration as the parent drug was then injected into the same region as the tumour at a dose of 0.5 mg or 1 mg. The tumours were then photographed, measured and re-injected every two to three days.

[2] = tested on: pain response on heated plate; conditions: for mean time response: standard error of each mean ±2.86
Experimental: The biological activities of Morphine (Mo) and fatty acid conjugates were tested in an antinociceptive assay using mice. Various doses and duration of pain-killing effect of the drugs were examined.
Quackenbush Strain mice (male, 5-week-old, approximately 30 g live weight) were used for the experiments. Animals were given free access to food and water prior to and during the experiment. Animals were divided into groups of 12 and individually weighed. The mean weight for each group was calculated. Mice were then placed on a metal block heated to 50° C. and the time taken for the animals to show signs of discomfort was measured (baseline response: control). Mice were then injected intraperitoneally (ip) with various doses of Morphine or Morphine-fatty acid conjugate. Morphine was made up in a H2O solution and Morphine-fatty acids were made up in an emulsion containing 10% glycerylmonooleate, 21% Miglyol, 6% ethanol, 24% Tween 80 (33%) and 39% H2O. 0.2 ml of appropriate solution was injected ip into each mouse. At different times after injection, responses on the heated plate were measured. In each experiment 3 doses of Morphine and Morphine-fatty acid and 2 time points were tested. A single mouse was used for each treatment and the entire experiment repeated at least 3 times. […] Members of the panel were asked to score mice behaviour according to the following key:
0=agitated mouse, distressed
1=showing mild discomfort
2=not agitated or uncomfortable but still alert
3=placid. docile; not at all worried.
Results from the panel were averaged.

[3] = DOPA moiety 364 mg/kg ip, 20 min
[4] = DOPA moiety 637 mg/kg ip, 20 min

CCCCCCCCCCCCCCCC(=O)OCC(COC(=O)CCCCCCCCCCCCCCC)(COC(=O)CCCCCCCCCCCCCCC)NC(=O)CNC(=O)CCC(=O)OCC(=O)C1(O)CCC2C3CCC4=CC(=O)CCC4(C)C3C(O)CC21C (stereo not drawn) [HC-Suc-GTP3, Hydrocortisone-Suc-Gly-Tris-Tripalmitate]
Mean Net Skin Fold Thickness (UVB induced oedema; 0.5 mg/mouse topical in ethanol, applied Day −5 (5 days prior to UV exposure), 2MED UVB, measured 24 h): 93.8 ± 9.8 10^−2 mm
Mean Net Skin Fold Thickness (UVB induced oedema; 0.5 mg/mouse topical, applied Day 0 after UV exposure, 2MED UVB): 55.8 ± 11.7 10^−2 mm
Mean Net Skin Fold Thickness (UVB induced oedema; 0.5 mg/mouse topical, applied Day −3 (3 days prior to UV exposure), 2MED UVB): 86.7 ± 9.4 10^−2 mm
activity equivalent to % of the hydrocortisone activity in protecting against UVB induced oedema (UVB induced oedema; 0.5 mg/mouse, applied at Day 0, post UVB exposure): approximately 50%
Mean Net Skin Fold Thickness (UVB induced oedema; 1 mg/mouse (1% w/v) topical, applied Day 0 after UV exposure): 27.9 ± 7.5
Mean Net Skin Fold Thickness (UVB induced oedema; 1 mg/mouse (1% w/v) topical, applied Day −3): 62.9 ± 4.0
Mean Net Skin Fold Thickness (UVB induced oedema; 1 mg/mouse (1% w/v) topical, applied Day −5): 103.8 ± 3.0

N[C@@H](Cc1ccc(O)c(O)c1)C(=O)O [L-DOPA, 3-(3,4-dihydroxyphenyl)-alanine, reference compound]
Anti-Reserpine Activity (response) [1, 3]: +
Anti-Reserpine Activity (response) [1, 4]: +
Response at 15 min. ([1]; L-DOPA moiety 9.1 mg/kg ip): −
Response at 15 min. ([1]; L-DOPA moiety 91 mg/kg ip): − and +
Response at 15 min. ([1]; L-DOPA moiety 364 mg/kg ip): +
Response at 15 min. ([1]; L-DOPA moiety 637 mg/kg ip): +
Response at 15 min. ([1]; L-DOPA moiety 910 mg/kg ip): +
doses at which all catatonic animals became active ([1]; ip, Experiment 1): ≥ 364 mg/kg
toxic effects observed in treated catatonic mice ([1]; mouse, in vivo, ip): toxic effects of L-DOPA such as rearing, salivating and jumping

CCCCCCCCCCCCCCCC(=O)OCC(CO)(COC(=O)CCCCCCCCCCCCCCC)NC(=O)CNC(=O)[C@@H](N)Cc1ccc(O)c(O)c1 [L-DOPA-GTP2, DOPA-Gly-Tris-Dipalmitate]
time after administration at which signs of recovery showed ([1]; 364 mg DOPA/kg ip): 7 h
time after administration at which signs of recovery showed ([1]; 637 mg DOPA/kg ip): 5 h
recovery from catatonia at low doses ([1]; 9.1 and 91 mg DOPA/kg ip): did not recover
Anti-Reserpine Activity (response) ([1]; DOPA moiety 9.1 mg/kg ip, 20 min): − −
Anti-Reserpine Activity (response) ([1]; DOPA moiety 9.1 mg/kg ip, 2 hr): − −
Anti-Reserpine Activity (response) ([1]; DOPA moiety 9.1 mg/kg ip, 5 hr): − −
Anti-Reserpine Activity (response) ([1]; DOPA moiety 9.1 mg/kg ip, 6 hr): − −
Anti-Reserpine Activity (response) ([1]; DOPA moiety 9.1 mg/kg ip, 7 hr): − −
Anti-Reserpine Activity (response) ([1]; DOPA moiety 9.1 mg/kg ip, 8 hr): − −
Anti-Reserpine Activity (response) ([1]; DOPA moiety 91 mg/kg ip, 20 min): − −
Anti-Reserpine Activity (response) ([1]; DOPA moiety 91 mg/kg ip, 2 hr): − −
Anti-Reserpine Activity (response) ([1]; DOPA moiety 91 mg/kg ip, 5 hr): − −
Anti-Reserpine Activity (response) ([1]; DOPA moiety 91 mg/kg ip, 6 hr): − −
Anti-Reserpine Activity (response) ([1]; DOPA moiety 91 mg/kg ip, 7 hr): − −
Anti-Reserpine Activity (response) ([1]; DOPA moiety 91 mg/kg ip, 8 hr): − −
Anti-Reserpine Activity (response) [1, 3]: − −
Anti-Reserpine Activity (response) ([1]; DOPA moiety 364 mg/kg ip, 2 hr): − −
Anti-Reserpine Activity (response) ([1]; DOPA moiety 364 mg/kg ip, 5 hr): − −
Anti-Reserpine Activity (response) ([1]; DOPA moiety 364 mg/kg ip, 6 hr): − −
Anti-Reserpine Activity (response) ([1]; DOPA moiety 364 mg/kg ip, 7 hr): M —
Anti-Reserpine Activity (response) ([1]; DOPA moiety 364 mg/kg ip, 8 hr): M M
Anti-Reserpine Activity (response) [1, 4]: −
Anti-Reserpine Activity (response) ([1]; DOPA moiety 637 mg/kg ip, 2 hr): −
toxic effects observed in treated catatonic mice ([1]; ip in Miglyol, active doses): did not exhibit the high activity level and toxic effects

CCCCCCCCCCCCCCCC(=O)OCC(CO)(COC(=O)CCCCCCCCCCCCCCC)NC(=O)CNC(=O)CC[C@H](NC(=O)c1ccc(N(C)Cc2cnc3nc(N)nc(N)c3n2)cc1)C(=O)O [MTXGTP2, Methotrexate-γ-Gly-Tris-Dipalmitate]
difference in tumour volume from the Vehicle group (95% level) (B16 melanoma cells): significant difference
Mean (standard error) of B16 tumour volume adjusted for the variation in initial volume (B16 melanoma cells; 13/11/95, 0.5 mg): 2.04 (0.565)
Mean (standard error) of B16 tumour volume adjusted for the variation in initial volume (B16 melanoma cells; 13/11/95, 1.0 mg): 2.30 (0.536)
Mean (standard error) of B16 tumour volume adjusted for the variation in initial volume (B16 melanoma cells; 15/11/95, 0.5 mg): 3.37 (0.884)
Mean (standard error) of B16 tumour volume adjusted for the variation in initial volume (B16 melanoma cells; 15/11/95, 1.0 mg): 3.40 (0.839)
Mean (standard error) of B16 tumour volume adjusted for the variation in initial volume (B16 melanoma cells; 16/11/95, 0.5 mg): 3.76 (1.06)
Mean (standard error) of B16 tumour volume adjusted for the variation in initial volume (B16 melanoma cells; 16/11/95, 1.0 mg): 4.13 (1.01)
Mean (standard error) of B16 tumour volume adjusted for the variation in initial volume (B16 melanoma cells; 17/11/95, 0.5 mg): 4.03 (1.28)
Mean (standard error) of B16 tumour volume adjusted for the variation in initial volume (B16 melanoma cells; 17/11/95, 1.0 mg): 4.89 (1.22)
B16 Tumour Volume (B16 melanoma cells; Day 1, drug dose 0.5 mg injected at tumour region): 0.5 mm^2 (2×) and 2.7 mm^2 and 16.6 mm^2
B16 Tumour Volume (B16 melanoma cells; Day 1, drug dose 1.0 mg): 0.1 mm^2 and 8.2 mm^2 (2×) and 10.8 mm^2
B16 Tumour Volume (B16 melanoma cells; Day 3, drug dose 0.5 mg): 0 mm^2 (3×) and 16.6 mm^2
B16 Tumour Volume (B16 melanoma cells; Day 3, drug dose 1.0 mg): 0.1 mm^2 and 10.8 mm^2 and 0 mm^2 and 30.4 mm^2
B16 Tumour Volume (B16 melanoma cells; Day 5, drug dose 0.5 mg): 0 mm^2 (2×) and 11.8 mm^2 and 64.5 mm^2
B16 Tumour Volume (B16 melanoma cells; Day 5, drug dose 1.0 mg): 0.5 mm^2 and 21.8 mm^2 and 0 mm^2 and 142.5 mm^2
B16 Tumour Volume (B16 melanoma cells; Day 6, drug dose 0.5 mg): 0 mm^2 (2×) and 19.8 mm^2 and 77.6 mm^2
B16 Tumour Volume (B16 melanoma cells; Day 6, drug dose 1.0 mg): 0.5 mm^2 and 46.8 mm^2 and 0 mm^2 and 261.8 mm^2
B16 Tumour Volume (B16 melanoma cells; Day 7, drug dose 0.5 mg): 0 mm^2 (2×) and 26 mm^2 and 113 mm^2
B16 Tumour Volume (B16 melanoma cells; Day 7, drug dose 1.0 mg): 14 mm^2 and 50 mm^2 and 0 mm^2 and 379 mm^2

CN(Cc1cnc2nc(N)nc(N)c2n1)c1ccc(C(=O)N[C@@H](CCC(=O)O)C(=O)O)cc1 [Methotrexate, reference compound]
difference in tumour volume from the Vehicle group (95% level) (B16 melanoma cells): no significant difference
Mean (standard error) of B16 tumour volume adjusted for the variation in initial volume (B16 melanoma cells; 13/11/95, 0.5 mg): 3.58 (0.610)
Mean (standard error) of B16 tumour volume adjusted for the variation in initial volume (B16 melanoma cells; 15/11/95, 0.5 mg): 5.47 (0.955)
Mean (standard error) of B16 tumour volume adjusted for the variation in initial volume (B16 melanoma cells; 16/11/95, 0.5 mg): 6.07 (1.15)
Mean (standard error) of B16 tumour volume adjusted for the variation in initial volume (B16 melanoma cells; 17/11/95, 0.5 mg): 7.24 (1.38)
B16 Tumour Volume (B16 melanoma cells; Day 1, drug dose 0.5 mg injected at tumour region, listed as MTX): 0.5 mm^2 and 3.8 mm^2 and 14.1 mm^2 and 26 mm^2
B16 Tumour Volume (B16 melanoma cells; Day 3, drug dose 0.5 mg, listed as MTX): 13.6 mm^2 and 4.2 mm^2 and 30.4 mm^2 and 86 mm^2
B16 Tumour Volume (B16 melanoma cells; Day 5, drug dose 0.5 mg, listed as MTX): 73.5 mm^2 and 14.1 mm^2 and 86.0 mm^2 and 219.4 mm^2
B16 Tumour Volume (B16 melanoma cells; Day 6, drug dose 0.5 mg, listed as MTX): 125.1 mm^2 and 14.1 mm^2 and 215.0 mm^2 and 266.5 mm^2
B16 Tumour Volume (B16 melanoma cells; Day 7, drug dose 0.5 mg, listed as MTX): 190 mm^2 and 21 mm^2 and 234 mm^2 and 515 mm^2

CCCCCCCCCCCCCCCC(=O)OCC(COC(=O)CCCCCCCCCCCCCCC)(COC(=O)CCCCCCCCCCCCCCC)NC(=O)CNC(=O)CCC(=O)Oc1ccc2c3c1O[C@H]1[C@@H](O)C=C[C@H]4[C@@H](C2)N(C)CC[C@@]341 [Mo-Suc-GTP3, Morphine-Suc-Gly-Tris Tripalmitate]
mean time response ([2]; 1 mg Mo/kg ip, 4 hr): 23.5 s
mean time response ([2]; 1 mg Mo/kg ip, 6 hr): 27.8 s
mean time response ([2]; 10 mg Mo/kg ip, 4 hr): 29.8 s
mean time response ([2]; 10 mg Mo/kg ip, 6 hr): 29.0 s
duration of pain-killing effect compared with morphine ([2]; ip injection): longer lasting effect than morphine
